Here are results for ten compounds from PMC12136037, “Type II kinase inhibitors that target Parkinson’s disease–associated LRRK2” (Science Advances, 2025).

Common to all, as to assay: DSF 100 kinase selectivity screen;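 note: compound tested at 20 µM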
Holding throughout (type): binding

Assay [1] deals with T1, ~100 representative kinases (Homo sapiens, UniProt O14733).
T1 construct: Recombinant protein kinase domains with a concentration of 2 μM
T1 sequence (O14733 1-419): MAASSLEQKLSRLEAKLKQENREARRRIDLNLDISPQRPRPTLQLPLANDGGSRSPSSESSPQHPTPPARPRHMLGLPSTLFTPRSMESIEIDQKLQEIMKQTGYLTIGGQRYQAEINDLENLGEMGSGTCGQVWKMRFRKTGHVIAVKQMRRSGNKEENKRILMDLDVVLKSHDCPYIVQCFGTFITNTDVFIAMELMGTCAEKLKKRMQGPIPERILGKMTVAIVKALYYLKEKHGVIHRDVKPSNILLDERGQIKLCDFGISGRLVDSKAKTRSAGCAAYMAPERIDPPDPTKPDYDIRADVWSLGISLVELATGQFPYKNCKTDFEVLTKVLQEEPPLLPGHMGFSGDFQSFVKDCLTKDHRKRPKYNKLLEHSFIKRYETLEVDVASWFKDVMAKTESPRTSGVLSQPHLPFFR
The note with it: protein MAP2K7; average of three replicates. The method, boiled down:
(§1)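 Each kinase domain, at 2 μM, is mixed with 20 μM test compound and SYPRO Orange in Hepes (20 mM, pH 7.5) with 500 mM NaCl. Temperature is then raised at 3°C/min and fluorescence-monitored unfolding yields the melting temperature change, ΔTm in degrees Celsius.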

Assay [2] deals with T2, ~100 representative kinases (Homo sapiens, UniProt O15075).
T2 construct: Recombinant protein kinase domains with a concentration of 2 μM
The conditions noted are these: Protein DCAMKL1; average of three replicates. The method, boiled down:
as §1

The target of assay [3] is T3, ~100 representative kinases (Homo sapiens, UniProt P15056).
T3 construct: Recombinant protein kinase domains with a concentration of 2 μM
The note with it: Protein BRAF; average of three replicates. The method, boiled down: as §1

The target of assay [4] is T4, ~100 representative kinases (Homo sapiens, UniProt P21802).
T4 construct: Recombinant protein kinase domains with a concentration of 2 μM
The conditions noted are these: protein FGFR2; average of three replicates. The method, boiled down: as §1

In assay [5] the target is T5, ~100 representative kinases (Homo sapiens, UniProt P24941).
T5 construct: Recombinant protein kinase domains with a concentration of 2 μM
The conditions noted are these: Protein CDK2; average of three replicates. The method, boiled down:
as §1

In assay [6] the target is T6, ~100 representative kinases (Homo sapiens, UniProt P49674).
T6 construct: Recombinant protein kinase domains with a concentration of 2 μM
The conditions noted are these: Protein CSNK1E; average of three replicates. The method, boiled down:
as §1

Assay [7] deals with T7, ~100 representative kinases (Homo sapiens, UniProt P49761).
T7 construct: Recombinant protein kinase domains with a concentration of 2 μM
The conditions noted are these: Protein CLK3; average of three replicates. The method, boiled down:
as §1

Assay [8] concerns the target T8, ~100 representative kinases (Homo sapiens, UniProt P52564).
T8 construct: Recombinant protein kinase domains with a concentration of 2 μM
T8 sequence (P52564 1-334): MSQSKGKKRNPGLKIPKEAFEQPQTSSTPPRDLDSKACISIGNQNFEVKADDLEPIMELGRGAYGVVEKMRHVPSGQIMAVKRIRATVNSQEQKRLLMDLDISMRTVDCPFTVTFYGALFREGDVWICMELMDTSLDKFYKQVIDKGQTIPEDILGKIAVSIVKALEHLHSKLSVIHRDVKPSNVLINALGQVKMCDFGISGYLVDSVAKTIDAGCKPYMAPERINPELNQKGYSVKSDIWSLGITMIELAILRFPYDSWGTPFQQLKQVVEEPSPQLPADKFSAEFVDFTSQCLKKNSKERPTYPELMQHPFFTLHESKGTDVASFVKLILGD
The note with it: protein MAP2K6; average of three replicates. The method, boiled down:
as §1

In assay [9] the target is T9, ~100 representative kinases (Homo sapiens, UniProt P54756).
T9 construct: Recombinant protein kinase domains with a concentration of 2 μM
The conditions noted are these: Protein EPHA5; average of three replicates. The method, boiled down:
as §1

The target in assay [10] is T10, ~100 representative kinases (Homo sapiens, UniProt Q15375).
T10 construct: Recombinant protein kinase domains with a concentration of 2 μM
The note with it: Protein EPHA7; average of three replicates. The method, boiled down:
as §1

The target of assay [11] is T11, ~100 representative kinases (Homo sapiens, UniProt Q99640).
T11 construct: Recombinant protein kinase domains with a concentration of 2 μM
T11 sequence (Q99640 1-499): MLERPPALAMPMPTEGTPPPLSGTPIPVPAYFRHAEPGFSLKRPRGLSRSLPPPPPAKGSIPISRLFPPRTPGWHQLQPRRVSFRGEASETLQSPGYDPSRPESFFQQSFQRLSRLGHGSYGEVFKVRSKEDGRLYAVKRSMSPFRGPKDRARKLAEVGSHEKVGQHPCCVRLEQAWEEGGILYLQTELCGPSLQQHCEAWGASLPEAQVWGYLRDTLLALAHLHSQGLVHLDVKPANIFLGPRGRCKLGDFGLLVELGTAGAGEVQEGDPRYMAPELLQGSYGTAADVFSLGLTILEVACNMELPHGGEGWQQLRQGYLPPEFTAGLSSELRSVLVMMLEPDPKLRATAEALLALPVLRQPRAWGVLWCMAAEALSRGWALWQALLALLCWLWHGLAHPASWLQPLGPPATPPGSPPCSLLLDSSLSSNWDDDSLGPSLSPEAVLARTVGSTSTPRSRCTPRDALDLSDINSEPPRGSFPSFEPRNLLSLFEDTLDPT
The conditions noted are these: protein PKMYT1; average of three replicates. In a few lines: as §1

Assay [12] deals with T12, ~100 representative kinases (Homo sapiens, UniProt Q9H2X6).
T12 construct: Recombinant protein kinase domains with a concentration of 2 μM
The conditions noted are these: protein HIPK2; average of three replicates. In a few lines:
as §1

T7 sequence (P49761 whole entry, the tested form may be a part): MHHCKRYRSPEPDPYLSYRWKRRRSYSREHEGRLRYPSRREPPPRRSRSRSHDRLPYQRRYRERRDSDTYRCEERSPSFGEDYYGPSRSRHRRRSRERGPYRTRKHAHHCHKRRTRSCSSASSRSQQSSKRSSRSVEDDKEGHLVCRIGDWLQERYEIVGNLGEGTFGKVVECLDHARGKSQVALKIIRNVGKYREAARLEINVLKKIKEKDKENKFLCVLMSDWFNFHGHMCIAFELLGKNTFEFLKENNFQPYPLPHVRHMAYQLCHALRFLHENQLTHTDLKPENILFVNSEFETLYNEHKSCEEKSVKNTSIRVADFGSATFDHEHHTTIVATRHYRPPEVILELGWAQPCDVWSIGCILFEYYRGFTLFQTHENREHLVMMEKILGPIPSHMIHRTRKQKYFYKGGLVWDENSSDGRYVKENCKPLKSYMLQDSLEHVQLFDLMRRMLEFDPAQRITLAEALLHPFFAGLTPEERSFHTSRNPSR
T12 sequence (Q9H2X6 whole entry, the tested form may be a part): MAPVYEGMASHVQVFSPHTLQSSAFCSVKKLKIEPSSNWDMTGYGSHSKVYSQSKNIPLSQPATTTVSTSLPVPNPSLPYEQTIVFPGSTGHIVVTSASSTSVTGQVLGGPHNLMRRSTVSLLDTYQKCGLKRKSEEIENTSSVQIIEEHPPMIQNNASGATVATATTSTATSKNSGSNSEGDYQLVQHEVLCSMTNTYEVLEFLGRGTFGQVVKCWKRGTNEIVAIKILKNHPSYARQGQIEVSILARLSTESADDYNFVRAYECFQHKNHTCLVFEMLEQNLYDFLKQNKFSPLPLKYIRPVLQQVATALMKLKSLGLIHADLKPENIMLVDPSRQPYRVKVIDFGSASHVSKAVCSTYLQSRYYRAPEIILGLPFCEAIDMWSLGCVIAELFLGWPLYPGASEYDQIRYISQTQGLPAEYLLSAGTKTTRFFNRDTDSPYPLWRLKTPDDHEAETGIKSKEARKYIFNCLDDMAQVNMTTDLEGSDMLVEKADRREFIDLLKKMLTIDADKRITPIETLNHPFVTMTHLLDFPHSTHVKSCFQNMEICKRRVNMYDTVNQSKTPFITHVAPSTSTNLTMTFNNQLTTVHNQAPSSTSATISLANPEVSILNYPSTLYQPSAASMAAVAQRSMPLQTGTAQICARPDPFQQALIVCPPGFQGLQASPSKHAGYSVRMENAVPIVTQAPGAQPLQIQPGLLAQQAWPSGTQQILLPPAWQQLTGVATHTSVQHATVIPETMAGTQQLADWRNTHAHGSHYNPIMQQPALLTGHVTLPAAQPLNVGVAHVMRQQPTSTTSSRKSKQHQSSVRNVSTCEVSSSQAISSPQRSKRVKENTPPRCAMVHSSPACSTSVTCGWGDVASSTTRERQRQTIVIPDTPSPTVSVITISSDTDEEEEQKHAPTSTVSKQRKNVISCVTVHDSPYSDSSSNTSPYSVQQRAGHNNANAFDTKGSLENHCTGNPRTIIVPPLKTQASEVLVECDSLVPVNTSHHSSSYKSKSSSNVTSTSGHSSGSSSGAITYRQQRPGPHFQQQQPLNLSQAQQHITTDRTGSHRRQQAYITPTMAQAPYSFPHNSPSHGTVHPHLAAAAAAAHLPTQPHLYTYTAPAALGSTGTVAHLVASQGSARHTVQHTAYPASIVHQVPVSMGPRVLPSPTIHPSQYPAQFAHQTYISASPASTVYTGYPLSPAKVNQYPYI
T3 sequence (P15056 whole entry, the tested form may be a part): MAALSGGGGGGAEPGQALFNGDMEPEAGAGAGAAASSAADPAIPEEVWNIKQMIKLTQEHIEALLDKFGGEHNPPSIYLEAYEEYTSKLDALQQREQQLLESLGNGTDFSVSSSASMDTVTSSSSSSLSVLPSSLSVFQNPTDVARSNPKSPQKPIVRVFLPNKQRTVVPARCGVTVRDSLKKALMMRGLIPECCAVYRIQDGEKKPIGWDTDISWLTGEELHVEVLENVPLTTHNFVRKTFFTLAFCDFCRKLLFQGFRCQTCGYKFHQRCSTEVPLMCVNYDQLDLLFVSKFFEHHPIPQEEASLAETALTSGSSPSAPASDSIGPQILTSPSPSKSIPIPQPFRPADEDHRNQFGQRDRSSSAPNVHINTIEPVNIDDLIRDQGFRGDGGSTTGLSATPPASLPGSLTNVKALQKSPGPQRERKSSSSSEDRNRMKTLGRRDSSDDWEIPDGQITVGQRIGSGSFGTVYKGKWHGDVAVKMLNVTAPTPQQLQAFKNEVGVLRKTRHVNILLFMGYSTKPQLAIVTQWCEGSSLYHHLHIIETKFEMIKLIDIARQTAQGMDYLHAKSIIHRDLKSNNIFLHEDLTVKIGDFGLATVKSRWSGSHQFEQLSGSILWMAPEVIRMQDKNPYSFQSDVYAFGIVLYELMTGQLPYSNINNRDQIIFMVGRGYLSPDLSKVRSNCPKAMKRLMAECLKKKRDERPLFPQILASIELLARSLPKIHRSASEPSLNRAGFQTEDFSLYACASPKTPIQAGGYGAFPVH
T4 sequence (P21802 22-821): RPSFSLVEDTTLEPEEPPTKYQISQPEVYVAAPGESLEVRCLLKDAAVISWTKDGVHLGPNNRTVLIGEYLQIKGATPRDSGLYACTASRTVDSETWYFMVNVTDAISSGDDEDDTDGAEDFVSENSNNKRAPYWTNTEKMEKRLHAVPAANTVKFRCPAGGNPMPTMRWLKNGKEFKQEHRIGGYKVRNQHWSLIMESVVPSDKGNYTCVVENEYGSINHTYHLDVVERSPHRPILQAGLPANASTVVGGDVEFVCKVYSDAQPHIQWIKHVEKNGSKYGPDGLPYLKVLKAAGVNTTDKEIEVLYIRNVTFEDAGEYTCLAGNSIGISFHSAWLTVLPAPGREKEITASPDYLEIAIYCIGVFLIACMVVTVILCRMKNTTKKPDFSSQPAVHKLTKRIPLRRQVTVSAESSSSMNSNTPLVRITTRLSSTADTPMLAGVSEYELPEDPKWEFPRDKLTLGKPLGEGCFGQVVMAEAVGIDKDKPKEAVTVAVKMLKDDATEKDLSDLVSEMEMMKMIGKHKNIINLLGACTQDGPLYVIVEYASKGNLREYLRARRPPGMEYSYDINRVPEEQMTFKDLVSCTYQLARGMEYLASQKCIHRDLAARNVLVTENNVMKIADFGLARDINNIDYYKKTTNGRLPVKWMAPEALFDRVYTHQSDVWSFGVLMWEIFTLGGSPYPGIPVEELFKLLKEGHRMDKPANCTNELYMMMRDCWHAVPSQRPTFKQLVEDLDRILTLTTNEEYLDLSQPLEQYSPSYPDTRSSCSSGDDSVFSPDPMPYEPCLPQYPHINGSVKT
T6 sequence (P49674 whole entry, the tested form may be a part): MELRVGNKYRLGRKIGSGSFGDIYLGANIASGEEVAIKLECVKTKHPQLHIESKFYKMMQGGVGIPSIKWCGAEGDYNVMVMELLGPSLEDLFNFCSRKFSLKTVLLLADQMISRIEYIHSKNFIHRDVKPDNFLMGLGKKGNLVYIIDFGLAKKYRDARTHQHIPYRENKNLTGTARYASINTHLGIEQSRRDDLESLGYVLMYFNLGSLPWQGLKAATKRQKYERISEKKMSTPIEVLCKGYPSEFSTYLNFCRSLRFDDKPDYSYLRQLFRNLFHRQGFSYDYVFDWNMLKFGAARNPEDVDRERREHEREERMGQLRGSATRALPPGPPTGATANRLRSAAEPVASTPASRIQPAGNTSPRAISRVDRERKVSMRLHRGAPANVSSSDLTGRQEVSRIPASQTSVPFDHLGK
T10 sequence (Q15375 28-998): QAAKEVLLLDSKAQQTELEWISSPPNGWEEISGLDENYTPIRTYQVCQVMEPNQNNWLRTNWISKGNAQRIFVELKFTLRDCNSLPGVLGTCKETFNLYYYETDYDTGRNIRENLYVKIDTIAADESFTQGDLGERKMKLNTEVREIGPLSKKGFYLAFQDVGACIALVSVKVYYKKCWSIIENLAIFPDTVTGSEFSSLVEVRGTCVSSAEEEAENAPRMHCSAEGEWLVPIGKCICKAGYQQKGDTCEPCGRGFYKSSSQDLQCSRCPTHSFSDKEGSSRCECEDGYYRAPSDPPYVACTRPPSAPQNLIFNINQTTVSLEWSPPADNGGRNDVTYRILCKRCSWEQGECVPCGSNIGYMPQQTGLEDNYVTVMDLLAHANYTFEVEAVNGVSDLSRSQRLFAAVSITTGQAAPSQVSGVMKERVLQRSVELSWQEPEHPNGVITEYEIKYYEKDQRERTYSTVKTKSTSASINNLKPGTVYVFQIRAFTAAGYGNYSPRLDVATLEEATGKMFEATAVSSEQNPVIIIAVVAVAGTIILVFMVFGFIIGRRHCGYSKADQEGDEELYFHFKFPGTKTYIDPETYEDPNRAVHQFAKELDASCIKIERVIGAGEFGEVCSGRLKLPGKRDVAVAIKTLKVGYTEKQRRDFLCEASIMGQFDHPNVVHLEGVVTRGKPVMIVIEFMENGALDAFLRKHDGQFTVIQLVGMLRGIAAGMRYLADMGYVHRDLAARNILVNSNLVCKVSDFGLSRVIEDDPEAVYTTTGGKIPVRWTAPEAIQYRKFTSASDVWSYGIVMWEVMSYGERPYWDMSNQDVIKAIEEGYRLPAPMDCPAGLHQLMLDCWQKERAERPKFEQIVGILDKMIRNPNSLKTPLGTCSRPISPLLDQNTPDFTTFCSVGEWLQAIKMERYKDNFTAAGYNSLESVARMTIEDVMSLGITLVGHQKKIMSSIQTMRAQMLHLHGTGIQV

In the case of `O=C(Nc1cccc(-c2c[nH]c3ncnc(N4CCOCC4)c23)c1)C1(C(=O)Nc2cccc3c2CCC3)CC1` [Compound 11], the dTm in assay [1] was 4.41 K; in assay [2], 2.70 K; in assay [3] it was 10.02 K; in assay [4] it was 2.75 K; in [5], 4.66 K; in assay [6] it was 4.91 K. Also, the dTm was 1.62 K in [7]; 2.82 K in assay [8]; -0.41 K in assay [9]; 1.36 K in [10]; -0.88 K in [11]; 1.82 K in assay [12].
Turning to `O=C(Nc1ccccc1)C1(C(=O)Nc2cccc(-c3c[nH]c4ncnc(N5CCOCC5)c34)c2)CC1` [Compound 12], the dTm in [1] was 4.30 K; in [2], 0.95 K; in assay [3], 6.85 K; in assay [4], 2.56 K; in assay [5], 3.53 K; in assay [6] it was 3.99 K. Further, the dTm in [7] is reported as 2.26 K; in assay [8], 2.08 K; in assay [9], 1.91 K; in assay [10], -1.64 K; in [11], 0.71 K; in assay [12], 7.64 K.
With `O=C(Nc1ccc(Cl)cc1)C1(C(=O)Nc2cccc(-c3c[nH]c4ncnc(N5CCOCC5)c34)c2)CC1` [Compound 13], the dTm in assay [1] worked out at 4.62 K; in [2] it was 2.89 K; in assay [3], 10.34 K; in [4] it was 3.14 K; in assay [5], 8.33 K; in assay [6] it was 5.46 K. Also, the dTm in [7] was 4.87 K; in assay [8], 2.65 K; in assay [9] it was 4.99 K; in assay [10], 0.19 K; in assay [11], 0.52 K; in assay [12], 10.73 K.
In the case of `Cc1ccc(NC(=O)C2(C(=O)Nc3cccc(-c4c[nH]c5ncnc(N6CCOCC6)c45)c3)CC2)cc1` [Compound 14], the dTm is reported as 2.82 K in assay [1]; -0.07 K in [2]; 8.39 K in assay [3]; 1.78 K in assay [4]; 7.03 K in [5]; 3.41 K in [6]. For the same compound, the dTm is recorded as 2.40 K in assay [7]; 1.56 K in [8]; 3.63 K in assay [9]; -1.63 K in [10]; 0.43 K in [11]; 8.21 K in assay [12].
In the case of `CCc1ccc(NC(=O)C2(C(=O)Nc3cccc(-c4c[nH]c5ncnc(N6CCOCC6)c45)c3)CC2)cc1` [Compound 15], the dTm in assay [1] was determined as 3.12 K; in assay [2] it was 0.05 K; in [3], 9.26 K; in assay [4], 2.28 K; in assay [5] it was 9.83 K; in assay [6] it was 2.91 K. For the same compound, the dTm in assay [7] is 2.88 K; in [8], 2.06 K; in assay [9], 2.15 K; in [10] it was -2.17 K; in [11] it was 0.54 K; in [12], 8.10 K.
On to `COc1ccc(NC(=O)C2(C(=O)Nc3cccc(-c4c[nH]c5ncnc(N6CCOCC6)c45)c3)CC2)cc1` [Compound 16], for which the dTm in assay [1] is on record as 0.55 K; in [2] it was -1.88 K; in assay [3], 4.18 K; in [4] it was 1.54 K; in assay [5], 5.86 K; in [6] it was 2.19 K. Further, the dTm was 0.51 K in [7]; 0.82 K in assay [8]; -0.30 K in assay [9]; -2.77 K in assay [10]; -0.09 K in [11]; 6.00 K in [12].
On to `O=C(Nc1cccc(-c2c[nH]c3ncnc(N4CCOCC4)c23)c1)C1(C(=O)Nc2ccc(F)c(F)c2)CC1` [Compound 17], for which the dTm in assay [1] was determined as 4.27 K; in assay [2] it was 1.90 K; in assay [3], 7.80 K; in [4] it was 2.62 K; in assay [5], 5.91 K; in assay [6] it was 5.09 K. Further, the dTm is given as 3.44 K in assay [7]; 2.36 K in assay [8]; 2.05 K in assay [9]; -1.27 K in [10]; 0.00857 K in assay [11]; 9.54 K in assay [12].
For `O=C(Nc1cccc(-c2c[nH]c3ncnc(N4CCOCC4)c23)c1)C1(C(=O)Nc2ccc(F)c(Cl)c2)CC1` [Compound 18], the dTm in [1] was 5.35 K; in [2], 2.36 K; in assay [3], 10.73 K; in [4] it was 4.02 K; in assay [5] it was 6.75 K; in [6] it was 5.76 K. For the same compound, the dTm in [7] is 4.42 K; in [8], 2.96 K; in assay [9] it was 2.50 K; in assay [10], 0.26 K; in assay [11] it was -1.54 K; in assay [12], 10.76 K.
Take `O=C(Nc1cccc(-c2c[nH]c3ncnc(N4CCOCC4)c23)c1)C1(C(=O)Nc2ccc(F)c(Br)c2)CC1` [Compound 19]: the dTm in assay [1] came out at 4.93 K; in assay [2], 4.80 K; in assay [3], 13.24 K; in [4], 4.16 K; in assay [5], 7.42 K; in assay [6] it was 6.33 K. The dTm in assay [7] is 5.09 K; in [8] it was 3.38 K; in [9], 2.70 K; in assay [10] it was 2.85 K; in [11] it was -0.61 K; in assay [12], 2.50 K.
As to `Cc1cc(NC(=O)C2(C(=O)Nc3cccc(-c4c[nH]c5ncnc(N6CCOCC6)c45)c3)CC2)ccc1F` [Compound 20], the dTm in assay [1] was 5.31 K; in assay [2], 2.29 K; in [3], 13.62 K; in assay [4], 4.17 K; in [5] it was 8.50 K; in assay [6] it was 6.52 K. For the same compound, the dTm in assay [7] is reported as 5.99 K; in assay [8], 3.64 K; in [9] it was 3.44 K; in assay [10] it was -0.92 K; in [11], 0.44 K; in [12], 11.54 K.
